pKi: −log10 of the molar value. “And” between values parts separate entries of the source, which are not always exact repeats. Identical values can stand only once.
Assays:
α1d-AR = molecular target: T1, α1d-AR (Homo sapiens, UniProt P25100); assay: α1-adrenergic receptor radio-ligand (125I-HEAT) binding assay, α1d subtype; settings: COS-7 cell membranes transfected with α1d subtype, 125I-HEAT 50 pM
T1 construct: expressed in transfected cells; host or cells: COS-7 (African Green monkey kidney) cell membranes
T1 sequence (P25100 1-572): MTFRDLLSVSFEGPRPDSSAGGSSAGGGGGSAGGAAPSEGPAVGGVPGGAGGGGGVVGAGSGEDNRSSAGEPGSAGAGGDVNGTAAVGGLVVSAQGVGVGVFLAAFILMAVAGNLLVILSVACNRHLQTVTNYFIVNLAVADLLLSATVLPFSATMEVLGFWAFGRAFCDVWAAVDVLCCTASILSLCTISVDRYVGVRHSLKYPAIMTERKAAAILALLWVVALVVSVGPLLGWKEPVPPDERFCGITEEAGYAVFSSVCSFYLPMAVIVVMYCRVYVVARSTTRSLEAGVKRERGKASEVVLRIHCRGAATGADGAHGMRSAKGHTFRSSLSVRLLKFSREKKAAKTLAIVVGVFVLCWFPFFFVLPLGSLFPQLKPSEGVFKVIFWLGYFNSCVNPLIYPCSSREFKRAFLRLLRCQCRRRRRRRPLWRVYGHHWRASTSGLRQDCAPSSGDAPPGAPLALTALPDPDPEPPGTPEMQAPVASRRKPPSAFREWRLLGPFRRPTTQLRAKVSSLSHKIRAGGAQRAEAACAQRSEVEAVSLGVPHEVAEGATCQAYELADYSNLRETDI
Experimental: (§1) α1-Adrenergic Receptor Binding Assay
(§2) Preparation of COS Cell Membranes
(§3) Membranes were prepared from COS-7 cells (African Green monkey kidney SV40-transformed cells) that had been transfected with one of the three α1-AR subtypes (Genbank accession number for the α1a subtype: AF013261; Genbank accession number for the α1b subtype: NM000679; Genbank accession number for the α1d subtype: NM000678) using the following method: COS cells from ten 100 mm tissue culture plates were scraped into a 5 mL volume of TE (a mixture of 50 mM Tris-HCl, 5 mM EDTA, pH 7.4). The cell suspension was disrupted with a Brinkman Polytron (at a setting of 8) for 10 sec. The disrupted cells were centrifuged at 1000×g for 10 min at 4° C. Supernatants were centrifuged at 34,500×g for 20 min at 4° C. The membrane pellets were suspended in a 2 mL volume of TNE (a mixture of 50 mM Tris-HCl, 5 mM EDTA and 150 mM NaCl at pH 7.4). An aliquot of the membrane suspension was stored at −70° C. until use. The protein concentration was determined using the BioRad “DC” protein assay kit following membrane solubilization with Triton X-100.
(§4) Radio-Ligand Binding Assay
(§5) Triplicate determinations of radio-ligand binding in the presence of increasing concentrations of testing compound were made. The reagents were added to 96-well polypropylene plate wells. […] The plate was incubated at rt for 1 hr. The contents of the wells were filtered through a glass filter (type C) (GF/C) membrane Unifilter plate (Packard Instruments) using the Packard Filtermate cell harvester. The filter plates were dried in a vacuum oven for 30 min at 40° C. 25 μL Microscint 20 liquid scintillation fluid (Packard Instuments) was added to each well. The radioactive content was analyzed in the TopCount microplate scintillation counter (Packard Instruments).

α1a-AR = molecular target: T2, α1a-AR (Homo sapiens, UniProt P35348); assay: α1-adrenergic receptor radio-ligand (125I-HEAT) binding assay, α1a subtype; settings: COS-7 cell membranes transfected with α1a subtype, 125I-HEAT 50 pM
T2 construct: expressed in transfected cells; host or cells: COS-7 (African Green monkey kidney) cell membranes
T2 sequence (P35348 1-455 isoform P35348-4): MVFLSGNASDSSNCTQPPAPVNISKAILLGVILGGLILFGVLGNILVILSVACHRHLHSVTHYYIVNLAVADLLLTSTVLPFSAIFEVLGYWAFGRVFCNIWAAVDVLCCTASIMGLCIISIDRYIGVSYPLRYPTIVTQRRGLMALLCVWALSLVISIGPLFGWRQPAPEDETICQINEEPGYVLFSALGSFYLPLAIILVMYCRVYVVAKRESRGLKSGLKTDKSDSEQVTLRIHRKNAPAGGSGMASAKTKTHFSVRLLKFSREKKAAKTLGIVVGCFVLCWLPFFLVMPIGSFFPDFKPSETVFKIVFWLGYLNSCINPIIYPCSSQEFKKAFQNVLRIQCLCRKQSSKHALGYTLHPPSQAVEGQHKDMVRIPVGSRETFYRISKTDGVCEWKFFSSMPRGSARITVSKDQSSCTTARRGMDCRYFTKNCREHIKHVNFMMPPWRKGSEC
Experimental: as §1, §2, §3, §4, §5

α1b-AR = molecular target: T3, α1b-AR (Homo sapiens, UniProt P35368); assay: α1-adrenergic receptor radio-ligand (125I-HEAT) binding assay, α1b subtype; settings: COS-7 cell membranes transfected with α1b subtype, 125I-HEAT 50 pM
T3 construct: expressed in transfected cells; host or cells: COS-7 (African Green monkey kidney) cell membranes
T3 sequence (P35368 1-520): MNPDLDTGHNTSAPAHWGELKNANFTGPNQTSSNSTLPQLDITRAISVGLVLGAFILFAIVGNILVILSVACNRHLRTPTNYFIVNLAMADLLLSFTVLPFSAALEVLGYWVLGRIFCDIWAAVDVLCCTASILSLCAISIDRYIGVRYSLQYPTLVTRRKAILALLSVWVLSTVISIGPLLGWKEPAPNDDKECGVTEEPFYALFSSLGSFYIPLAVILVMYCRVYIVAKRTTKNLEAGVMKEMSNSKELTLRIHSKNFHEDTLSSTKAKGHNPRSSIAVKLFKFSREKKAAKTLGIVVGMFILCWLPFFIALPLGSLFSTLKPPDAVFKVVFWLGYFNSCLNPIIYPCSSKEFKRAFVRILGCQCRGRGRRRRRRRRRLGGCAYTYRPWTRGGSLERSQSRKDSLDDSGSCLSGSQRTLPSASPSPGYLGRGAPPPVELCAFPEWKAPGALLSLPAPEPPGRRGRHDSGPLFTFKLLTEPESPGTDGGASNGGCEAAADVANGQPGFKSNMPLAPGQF
Experimental: as §1, §2, §3, §4
Triplicate determinations of radio-ligand binding in the presence of increasing concentrations of testing compound were made. The reagents were added to 96-well polypropylene plate wells. Each assay well contained 140 μL TNE, 25 μL ^125I-2-(β-4-hydroxyphenyl)ethylaminomethyltetralone (^125I-HEAT) (specific activity 2200 Ci/mmol, Dupont-New England Nuclear, 50 pM final), 10 μL testing compound dissolved in dimethyl sulfoxide (DMSO) (1 pM to 10 μM in half-log increments, final), and 25 μL appropriate α1-AR membrane subtype suspension in TNE (0.5 ng/μL for the α1a and α1b subtypes and 13 ng/μL for the α1d subtype). The plate was incubated at rt for 1 hr. The contents of the wells were filtered through a glass filter (type C) (GF/C) membrane Unifilter plate (Packard Instruments) using the Packard Filtermate cell harvester. The filter plates were dried in a vacuum oven for 30 min at 40° C. 25 μL Microscint 20 liquid scintillation fluid (Packard Instuments) was added to each well. The radioactive content was analyzed in the TopCount microplate scintillation counter (Packard Instruments).
The Ki values (in nM) shown in Table 1 were determined using GraphPad Prism software.

[1] = test system: α1a and α1d subtypes over the α1b subtype; settings: cited from earlier work

SMILES: CC(C)Oc1ccccc1N1CCN(C2CCC(N3C(=O)c4c(F)c(F)c(F)c(F)c4C3=O)CC2)CC1 (mixture of isomers) [Cpd 1, 4,5,6,7-tetrafluoro-2-{4-[4-(2-isopropoxy-phenyl)-piperazin-1-yl]-cyclohexyl}-isoindole-1,3-dione]
- pKi (α1d-AR): 7.52
- pKi (α1a-AR): 7.42
- pKi (α1b-AR): 5.39

SMILES: CC(C)Oc1ccccc1N1CCN(C2CCC(N3C(=O)c4cc(Cl)c(Cl)cc4C3=O)CC2)CC1 (mixture of isomers) [Cpd 2, 5,6-dichloro-2-{4-[4-(2-isopropoxy-phenyl)-piperazin-1-yl]-cyclohexyl}-isoindole-1,3-dione]
- pKi (α1d-AR): 9.51
- pKi (α1a-AR): 8.57
- pKi (α1b-AR): 5.97

SMILES: CC(C)Oc1ccccc1N1CCN(C2CCC(N3C(=O)c4cccnc4C3=O)CC2)CC1 (mixture of isomers) [Cpd 5, 6-{4-[4-(2-isopropoxy-phenyl)-piperazin-1-yl]-cyclohexyl}-pyrrolo[3,4-b]pyridine-5,7-dione]
- pKi (α1d-AR): 8.84
- pKi (α1a-AR): 9.12
- pKi (α1b-AR): 7.35

SMILES: CC(C)Oc1ccccc1N1CCN(C2CCC(N3C(=O)c4ccncc4C3=O)CC2)CC1 (mixture of isomers) [Cpd 6, 2-{4-[4-(2-isopropoxy-phenyl)-piperazin-1-yl]-cyclohexyl}-pyrrolo[3,4-c]pyridine-1,3-dione]
- pKi (α1d-AR): 9.11
- pKi (α1a-AR): 9.37
- pKi (α1b-AR): 7.65

SMILES: CC(C)Oc1ccccc1N1CCN(C2CCC(N3C(=O)c4ccc5ccccc5c4C3=O)CC2)CC1 (mixture of isomers) [Cpd 7, 2-{4-[4-(2-isopropoxy-phenyl)-piperazin-1-yl]-cyclohexyl}-benzo[e]isoindole-1,3-dione]
- pKi (α1d-AR): 9.57 and 9.89
- pKi (α1a-AR): 9.24 and 8.52
- pKi (α1b-AR): 7.80 and 7.85

SMILES: CC(C)Oc1ccccc1N1CCN([C@H]2CC[C@H](N3C(=O)c4cccc(F)c4C3=O)CC2)CC1 [Cpd 3, 4-fluoro-r-2-{t-4-[4-(2-isopropoxy-phenyl)-piperazin-1-yl]-cyclohexyl}-isoindole-1,3-dione]
- pKi (α1d-AR): 10.05
- pKi (α1a-AR): 9.70
- pKi (α1b-AR): 7.75

SMILES: CC(C)Oc1ccccc1N1CCN([C@H]2CC[C@@H](N3C(=O)c4cccc(F)c4C3=O)CC2)CC1 [Cpd 4, 4-fluoro-r-2-{c-4-[4-(2-isopropoxy-phenyl)-piperazin-1-yl]-cyclohexyl}-isoindole-1,3-dione]
- pKi (α1d-AR): 8.49 and 7.87 and 7.55
- pKi (α1a-AR): 9.06 and 8.96 and 9.02
- pKi (α1b-AR): 6.78 and 6.89 and 7.06

SMILES: CC(C)Oc1ccccc1N1CCN([C@H]2CC[C@@H](N3C(=O)c4ccc5ccc(F)cc5c4C3=O)CC2)CC1 [Cpd 8, 8-fluoro-r-2-{c-4-[4-(2-isopropoxy-phenyl)-piperazin-1-yl]-cyclohexyl}-benzo[e]isoindole-1,3-dione]
- pKi (α1d-AR): 7.79
- pKi (α1a-AR): 7.82
- pKi (α1b-AR): 6.57

SMILES: CC(C)Oc1ccccc1N1CCN([C@H]2CC[C@H](N3C(=O)c4ccc5ccc(F)cc5c4C3=O)CC2)CC1 [Cpd 9, 8-fluoro-r-2-{t-4-[4-(2-isopropoxy-phenyl)-piperazin-1-yl]-cyclohexyl}-benzo[e]isoindole-1,3-dione]
- pKi (α1d-AR): 9.21 and 9.52
- pKi (α1a-AR): 8.72 and 8.23
- pKi (α1b-AR): 7.46 and 7.24

SMILES: CCOc1ccccc1OCCN[C@H](C)Cc1ccc(OC)c(S(N)(=O)=O)c1 [Tamsulosin]
- selectivity for the α1a and α1d subtypes over the α1b subtype [1]: about 15 fold
